O=[N+]([O-])c1ccc(Cl)c(Cl)c1
solubility (mole fraction)
Details	in ethanol	in methanol
278.15 K	0.02	0.0208
280.65 K	0.0271	0.0251
283.15 K	0.0352	0.0296
285.65 K	0.0444	0.0353
288.15 K	0.0549	0.0422
290.65 K	0.0661	0.0505
293.15 K	0.0769	0.0611
295.65 K	0.0888	0.0724
298.15 K	0.0997	0.0873
300.65 K	0.111	0.105
303.15 K	0.119	0.125
